Measured values: paper PMC9186362, “Design and biological evaluation of substituted 5,7-dihydro-6H-indolo[2,3-c]quinolin-6-one as novel selective Haspin inhibitors” (Journal of Enzyme Inhibition and Medicinal Chemistry, 2022)

Columns and labels:
[1] = target: T1, MAP2K1 (MEK1) S218D S222D (Homo sapiens, UniProt Q02750, S218D/S222D); assay: LanthaScreen Binding - Eu-anti-His; details: read-out: Percentage of inhibition
T1 construct: purchased Life Technologies (SelectScreen Whole Panel)
Protocol: (§1) We further evaluated the selectivity profile of compound 55 on a larger panel of kinases (SelectScreen Whole Panel, Life Technologies). The inhibition profile of 55, evaluated at 1 μM, is depicted on a dendrogram on Figure 3 where kinases inhibited by a minimum of 80% are shown. A full list of the kinases tested is shown on Table S1 in supplementary information.

MAPK15 (ERK7) = MAPK15 (ERK7) (Homo sapiens, UniProt Q8TD08); assay: LanthaScreen Binding - Eu-anti-His; details: read-out: Percentage of inhibition
Protocol: as §1

MAP2K2 (MEK2) = target: T2, MAP2K2 (MEK2) (Homo sapiens, UniProt P36507); assay: LanthaScreen Binding - Eu-anti-His; details: read-out: Percentage of inhibition
T2 construct: purchased Life Technologies
Protocol: as §1

[2] = target: T3, MAP3K7/MAP3K7IP1 (TAK1-TAB1) (Homo sapiens, UniProt O43318); assay: LanthaScreen Binding - Eu-anti-His; details: read-out: Percentage of inhibition
T3 construct: purchased Life Technologies (SelectScreen Whole Panel)
Protocol: as §1

AMPK (A1/B1/G2) = target: T4, AMPK (A1/B1/G2) (Homo sapiens, UniProt Q13131); assay: LanthaScreen Binding - Eu-anti-His; details: read-out: Percentage of inhibition
T4 construct: purchased Life Technologies (SelectScreen service)
Protocol: as §1

EPHA3 = EPHA3 (Homo sapiens, UniProt P29320); assay: LanthaScreen Binding - Eu-anti-His; details: read-out: Percentage of inhibition
Protocol: as §1

AMPK (A2/B2/G2) = target: T5, AMPK (A2/B2/G2) (Homo sapiens, UniProt P54646); assay: LanthaScreen Binding - Eu-anti-His; details: read-out: Percentage of inhibition
T5 construct: purchased Life Technologies (SelectScreen service)
Protocol: as §1

ULK3 = target: T6, ULK3 (Homo sapiens, UniProt Q6PHR2); assay: LanthaScreen Binding - Eu-anti-His; details: read-out: Percentage of inhibition
T6 construct: purchased Life Technologies (SelectScreen Whole Panel service)
Protocol: as §1

LIMK1 = target: T7, LIMK1 (Homo sapiens, UniProt P53667); assay: LanthaScreen Binding - Eu-anti-His; details: read-out: Percentage of inhibition
T7 construct: purchased Life Technologies (SelectScreen service)
Protocol: as §1

CDK8/cyclin C = target: T8, CDK8/cyclin C (Homo sapiens, UniProt P49336); assay: LanthaScreen Binding - Eu-anti-His; details: read-out: Percentage of inhibition
T8 construct: purchased Life Technologies
Protocol: as §1

TEC = target: T9, TEC (Homo sapiens, UniProt P42680); assay: LanthaScreen Binding - Eu-anti-His; details: read-out: Percentage of inhibition
T9 construct: purchased Life Technologies
Protocol: as §1

MAP2K6 (MKK6) = target: T10, MAP2K6 (MKK6) (Homo sapiens, UniProt P52564); assay: LanthaScreen Binding - Eu-anti-His; details: read-out: Percentage of inhibition
T10 construct: purchased Life Technologies (SelectScreen Whole Panel service)
Protocol: as §1

CLK4 = target: T11, CLK4 (Homo sapiens, UniProt Q9HAZ1); assay: LanthaScreen Binding - Eu-anti-His; details: read-out: Percentage of inhibition
T11 construct: purchased Life Technologies (SelectScreen Whole Panel)
Protocol: as §1

STK39 (STLK3) = target: T12, STK39 (STLK3) (Homo sapiens, UniProt Q9UEW8); assay: LanthaScreen Binding - Eu-anti-His; details: read-out: Percentage of inhibition
T12 construct: purchased Life Technologies (SelectScreen service)
Protocol: as §1

CDK9/cyclin K = CDK9/cyclin K (Homo sapiens, UniProt P50750); assay: LanthaScreen Binding - Eu-anti-His; details: read-out: Percentage of inhibition
Protocol: as §1

BMPR2 = target: T13, BMPR2 (Homo sapiens, UniProt Q13873); assay: LanthaScreen Binding - Eu-anti-His; details: read-out: Percentage of inhibition
T13 construct: purchased Life Technologies (SelectScreen Whole Panel)
Protocol: as §1

MAPK9 (JNK2) = target: T14, MAPK9 (JNK2) (Homo sapiens, UniProt P45984); assay: LanthaScreen Binding - Eu-anti-His; details: read-out: Percentage of inhibition
T14 construct: purchased Life Technologies (SelectScreen service)
Protocol: as §1

AMPK (A1/B1/G3) = target: T15, AMPK (A1/B1/G3) (Homo sapiens, UniProt Q13131); assay: LanthaScreen Binding - Eu-anti-His; details: read-out: Percentage of inhibition
T15 construct: purchased Life Technologies (SelectScreen service)
Protocol: as §1

STK33 = target: T16, STK33 (Homo sapiens, UniProt Q9BYT3); assay: LanthaScreen Binding - Eu-anti-His; details: read-out: Percentage of inhibition
T16 construct: purchased Life Technologies (SelectScreen Whole Panel service)
Protocol: as §1

CAMKK1 (CAMKKA) = target: T17, CAMKK1 (CAMKKA) (Homo sapiens, UniProt Q8N5S9); assay: LanthaScreen Binding - Eu-anti-His; details: read-out: Percentage of inhibition
T17 construct: purchased Life Technologies (SelectScreen)
Protocol: as §1

WNK1 = WNK1 (Homo sapiens, UniProt Q9H4A3); assay: LanthaScreen Binding - Eu-anti-His; details: read-out: Percentage of inhibition
Protocol: as §1

AMPK (A2/B2/G1) = target: T18, AMPK (A2/B2/G1) (Homo sapiens, UniProt P54646); assay: LanthaScreen Binding - Eu-anti-His; details: read-out: Percentage of inhibition
T18 construct: purchased Life Technologies (SelectScreen service)
Protocol: as §1

DAPK2 = target: T19, DAPK2 (Homo sapiens, UniProt Q9UIK4); assay: LanthaScreen Binding - Eu-anti-His; details: read-out: Percentage of inhibition
T19 construct: purchased Life Technologies (SelectScreen service)
Protocol: as §1

KIT V654A = target: T20, KIT V654A (Homo sapiens, UniProt P10721, V654A); assay: LanthaScreen Binding - Eu-anti-His; details: read-out: Percentage of inhibition
T20 construct: purchased Life Technologies (SelectScreen service)
Protocol: as §1

U-2 OS spheroids = assay: 3D spheroid viability; type: cell-based, human; details: 2.5, 5 and 10 µM single dose, 7 days
Protocol: (§2) U-2 OS cells were seeded at 5000 cells per well and HCT116 at 1500 cells per well, in 96-well black ULA plates (Ultra Low Adherence, Corning). After centrifugation at 200 g for 10 min, spheroids were incubated at 37 °C for 3 days in order to reach 400 µm in diameter. Compounds were then added at a single dose (2.5, 5, or 10 μM) and cell viability was measured after 7 days using the CellTiter-Glo® 3D Cell Viability Assay (Promega) following the manufacturer's protocol. Luminescence was measured using an EnVision® plate reader (Perkin Elmer).

HCT116 spheroids = assay: 3D spheroid viability; type: cell-based, human; details: 2.5, 5 and 10 µM single dose, 7 days
Protocol: as §2

[3] = tested on: endogenous Haspin (H3T3ph) in U-2 OS cells; assay: Endogenous Haspin activity, H3T3ph immunofluorescence; type: cell-based, human; details: 0.5 µM, 16 h, early mitotic U-2 OS cells
Protocol: U-2 OS cells were grown on glass coverslips, treated for 16 h than fixed with 4% paraformaldehyde in PBS, permeabilized by 0.15% Triton-X100 for 2 min, blocked for 15 min in 4% BSA in PBS and processed using standard immunofluorescence protocols. Primary antibodies included anti-phospho-Thr3 Histone H3 (1/1000 dilution, Millipore) and anti-α-tubulin (1/5000 dilution, clone B512, Sigma). Images were acquired with a Coolsnap HQ2 CCD camera (Photometrics) on a Zeiss Axio microscope (Carl Zeiss) using a 63x NA 1.40 objective. Image acquisition and processing were performed using Metamorph (Molecular Device). Quantification of signal intensity was performed using ImageJ software (NIH).

RnDYRK1A = RnDYRK1A (Rattus norvegicus, UniProt Q63470); assay: ADP-Glo kinase assay; type: biochemical, Rattus norvegicus (Rn)
Protocol: Kinase activities were determined using the ADP-Glo methodology (ADP-Glo Kinase Assay; Promega) according to the assay described by Nguyen et al.[32] except for MmCLK1. The later was assayed in the following buffer: 10 mM MgCl2, 1 mM EGTA, 1 mM DTT, 25 mM Tris-HCl pH 7.5, 50 µg/ml heparin, 0.15 mg/ml BSA, with 0.027 µg/µl of the following peptide: GRSRSRSRSRSR as substrate.

T2 sequence (P36507 whole entry): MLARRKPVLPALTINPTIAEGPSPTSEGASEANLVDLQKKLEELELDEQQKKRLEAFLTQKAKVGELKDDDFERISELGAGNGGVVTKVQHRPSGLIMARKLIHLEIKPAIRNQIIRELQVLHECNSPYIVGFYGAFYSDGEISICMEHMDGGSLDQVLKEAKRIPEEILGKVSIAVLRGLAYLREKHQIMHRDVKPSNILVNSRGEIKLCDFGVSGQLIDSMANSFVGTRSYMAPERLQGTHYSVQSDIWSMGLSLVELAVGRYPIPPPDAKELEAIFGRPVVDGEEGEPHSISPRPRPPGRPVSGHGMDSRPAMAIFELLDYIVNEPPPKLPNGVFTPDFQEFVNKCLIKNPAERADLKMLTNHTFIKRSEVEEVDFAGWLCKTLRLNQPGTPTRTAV
T3 sequence (O43318 with tags, fused parts or gaps limits assumed): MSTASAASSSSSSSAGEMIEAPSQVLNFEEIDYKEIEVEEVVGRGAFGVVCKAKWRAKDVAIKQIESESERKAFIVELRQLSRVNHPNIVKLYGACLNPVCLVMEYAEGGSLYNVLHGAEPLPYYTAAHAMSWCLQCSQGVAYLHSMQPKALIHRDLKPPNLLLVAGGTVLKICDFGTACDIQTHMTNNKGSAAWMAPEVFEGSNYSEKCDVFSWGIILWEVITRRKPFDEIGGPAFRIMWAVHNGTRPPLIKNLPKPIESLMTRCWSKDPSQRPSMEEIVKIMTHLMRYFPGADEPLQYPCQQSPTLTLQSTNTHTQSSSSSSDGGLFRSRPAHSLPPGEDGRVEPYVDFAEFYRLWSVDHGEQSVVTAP
T20 sequence (P10721 26-976 V654A): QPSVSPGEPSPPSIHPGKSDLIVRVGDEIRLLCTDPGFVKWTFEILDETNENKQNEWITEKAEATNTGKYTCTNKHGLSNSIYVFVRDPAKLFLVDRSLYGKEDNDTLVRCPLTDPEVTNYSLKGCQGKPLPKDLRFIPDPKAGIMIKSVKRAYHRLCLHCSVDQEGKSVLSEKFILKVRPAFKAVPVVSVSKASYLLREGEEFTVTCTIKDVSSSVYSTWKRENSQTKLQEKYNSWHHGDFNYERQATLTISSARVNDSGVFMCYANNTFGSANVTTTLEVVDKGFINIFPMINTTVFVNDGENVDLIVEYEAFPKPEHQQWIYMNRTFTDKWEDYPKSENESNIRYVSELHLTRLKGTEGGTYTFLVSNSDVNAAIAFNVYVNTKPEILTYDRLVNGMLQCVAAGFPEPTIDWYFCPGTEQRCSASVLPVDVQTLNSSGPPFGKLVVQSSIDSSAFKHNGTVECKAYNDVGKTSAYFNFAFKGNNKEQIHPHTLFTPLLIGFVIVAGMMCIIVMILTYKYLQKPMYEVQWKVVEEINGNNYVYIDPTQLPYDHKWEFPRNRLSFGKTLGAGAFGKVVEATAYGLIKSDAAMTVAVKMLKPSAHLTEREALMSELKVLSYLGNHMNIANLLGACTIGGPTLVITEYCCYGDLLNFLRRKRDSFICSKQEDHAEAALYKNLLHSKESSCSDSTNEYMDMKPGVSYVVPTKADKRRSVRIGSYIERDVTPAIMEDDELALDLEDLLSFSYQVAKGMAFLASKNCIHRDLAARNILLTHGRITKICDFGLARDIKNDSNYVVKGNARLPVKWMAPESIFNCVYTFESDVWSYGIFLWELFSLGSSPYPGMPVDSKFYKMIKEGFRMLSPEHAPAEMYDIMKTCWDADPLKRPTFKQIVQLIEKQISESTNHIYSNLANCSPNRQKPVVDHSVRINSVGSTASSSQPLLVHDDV
T13 sequence (Q13873 27-1038): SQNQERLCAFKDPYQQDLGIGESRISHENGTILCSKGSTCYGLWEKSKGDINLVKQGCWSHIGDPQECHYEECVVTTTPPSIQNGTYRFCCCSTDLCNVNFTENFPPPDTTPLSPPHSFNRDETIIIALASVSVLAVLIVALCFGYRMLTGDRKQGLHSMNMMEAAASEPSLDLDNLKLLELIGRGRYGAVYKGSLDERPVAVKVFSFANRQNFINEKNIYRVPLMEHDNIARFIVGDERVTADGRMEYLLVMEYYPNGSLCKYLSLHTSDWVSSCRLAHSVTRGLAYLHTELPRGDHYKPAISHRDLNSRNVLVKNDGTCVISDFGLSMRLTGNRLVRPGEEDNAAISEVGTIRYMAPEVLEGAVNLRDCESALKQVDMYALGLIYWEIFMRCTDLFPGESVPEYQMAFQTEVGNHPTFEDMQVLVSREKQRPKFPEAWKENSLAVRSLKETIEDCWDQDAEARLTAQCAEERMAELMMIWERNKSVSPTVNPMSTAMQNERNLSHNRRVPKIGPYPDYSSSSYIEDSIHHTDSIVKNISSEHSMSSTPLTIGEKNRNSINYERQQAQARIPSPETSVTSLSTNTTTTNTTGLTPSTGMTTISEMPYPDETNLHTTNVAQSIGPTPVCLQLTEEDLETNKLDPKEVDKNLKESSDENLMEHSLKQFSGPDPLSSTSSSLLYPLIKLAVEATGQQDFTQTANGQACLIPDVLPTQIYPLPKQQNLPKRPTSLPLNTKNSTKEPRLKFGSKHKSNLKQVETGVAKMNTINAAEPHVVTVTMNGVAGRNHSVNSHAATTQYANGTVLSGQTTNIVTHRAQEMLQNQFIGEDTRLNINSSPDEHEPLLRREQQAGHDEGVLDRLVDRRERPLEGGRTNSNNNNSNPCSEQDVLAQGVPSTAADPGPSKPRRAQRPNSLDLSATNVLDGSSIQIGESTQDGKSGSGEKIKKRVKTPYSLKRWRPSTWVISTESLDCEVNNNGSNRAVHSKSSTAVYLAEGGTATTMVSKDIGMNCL
T6 sequence (Q6PHR2 whole entry): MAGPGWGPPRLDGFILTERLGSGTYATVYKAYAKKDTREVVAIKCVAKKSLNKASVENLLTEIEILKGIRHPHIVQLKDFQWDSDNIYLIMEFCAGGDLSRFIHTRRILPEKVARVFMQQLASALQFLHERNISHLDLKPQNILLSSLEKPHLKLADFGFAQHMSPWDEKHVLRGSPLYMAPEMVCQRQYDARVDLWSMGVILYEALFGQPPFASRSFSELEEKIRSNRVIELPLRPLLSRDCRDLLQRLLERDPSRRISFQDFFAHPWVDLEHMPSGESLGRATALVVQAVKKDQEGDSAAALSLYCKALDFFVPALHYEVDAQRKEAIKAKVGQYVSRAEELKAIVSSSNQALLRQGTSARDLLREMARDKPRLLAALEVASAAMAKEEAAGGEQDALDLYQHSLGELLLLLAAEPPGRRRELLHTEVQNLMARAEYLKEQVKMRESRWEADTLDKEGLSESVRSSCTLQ
Chain of EPHA3 (P29320 21-983): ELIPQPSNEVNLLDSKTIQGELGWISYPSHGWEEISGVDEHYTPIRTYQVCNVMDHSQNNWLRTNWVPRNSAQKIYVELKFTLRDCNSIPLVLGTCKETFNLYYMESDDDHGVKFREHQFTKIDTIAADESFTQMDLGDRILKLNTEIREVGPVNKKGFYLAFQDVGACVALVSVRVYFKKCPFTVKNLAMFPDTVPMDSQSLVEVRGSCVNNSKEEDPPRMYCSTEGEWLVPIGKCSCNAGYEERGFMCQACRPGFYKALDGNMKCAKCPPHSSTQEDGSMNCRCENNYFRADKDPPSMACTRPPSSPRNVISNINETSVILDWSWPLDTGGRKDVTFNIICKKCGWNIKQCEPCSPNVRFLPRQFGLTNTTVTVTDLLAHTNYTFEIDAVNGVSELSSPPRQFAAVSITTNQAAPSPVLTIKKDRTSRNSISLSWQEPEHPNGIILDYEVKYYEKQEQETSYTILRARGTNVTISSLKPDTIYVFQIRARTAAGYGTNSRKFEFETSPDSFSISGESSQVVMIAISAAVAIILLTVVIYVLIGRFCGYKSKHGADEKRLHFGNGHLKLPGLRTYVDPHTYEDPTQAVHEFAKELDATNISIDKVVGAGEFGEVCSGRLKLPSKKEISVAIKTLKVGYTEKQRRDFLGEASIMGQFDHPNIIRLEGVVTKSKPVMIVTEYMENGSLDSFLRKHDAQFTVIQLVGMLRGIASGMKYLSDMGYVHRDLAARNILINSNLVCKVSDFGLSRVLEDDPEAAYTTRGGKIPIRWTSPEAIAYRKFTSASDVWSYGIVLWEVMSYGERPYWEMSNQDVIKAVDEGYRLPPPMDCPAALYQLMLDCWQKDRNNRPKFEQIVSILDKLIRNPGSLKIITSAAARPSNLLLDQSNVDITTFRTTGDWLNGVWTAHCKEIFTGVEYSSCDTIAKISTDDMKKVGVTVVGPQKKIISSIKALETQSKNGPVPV
T16 sequence (Q9BYT3 whole entry): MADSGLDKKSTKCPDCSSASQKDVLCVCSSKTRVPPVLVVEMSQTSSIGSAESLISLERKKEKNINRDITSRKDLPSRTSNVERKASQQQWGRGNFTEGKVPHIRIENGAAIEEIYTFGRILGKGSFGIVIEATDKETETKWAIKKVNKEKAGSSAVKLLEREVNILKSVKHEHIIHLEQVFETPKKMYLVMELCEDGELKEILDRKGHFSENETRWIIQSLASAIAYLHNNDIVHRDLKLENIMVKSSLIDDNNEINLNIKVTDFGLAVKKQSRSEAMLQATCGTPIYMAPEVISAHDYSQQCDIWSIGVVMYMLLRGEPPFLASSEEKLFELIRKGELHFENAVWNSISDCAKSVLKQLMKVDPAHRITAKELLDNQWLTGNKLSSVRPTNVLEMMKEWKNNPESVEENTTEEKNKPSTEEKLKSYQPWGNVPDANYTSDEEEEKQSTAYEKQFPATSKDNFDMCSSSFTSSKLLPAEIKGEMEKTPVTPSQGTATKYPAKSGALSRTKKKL
T10 sequence (P52564 whole entry): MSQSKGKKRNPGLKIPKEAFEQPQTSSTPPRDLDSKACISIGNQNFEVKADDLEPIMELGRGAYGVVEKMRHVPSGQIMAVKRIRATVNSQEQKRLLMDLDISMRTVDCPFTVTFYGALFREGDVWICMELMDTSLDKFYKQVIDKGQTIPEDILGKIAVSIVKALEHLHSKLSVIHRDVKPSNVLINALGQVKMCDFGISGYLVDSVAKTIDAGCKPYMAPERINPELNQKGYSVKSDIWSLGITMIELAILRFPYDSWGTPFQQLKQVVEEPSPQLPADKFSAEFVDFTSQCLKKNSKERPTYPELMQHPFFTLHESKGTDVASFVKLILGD

## COc1ccc2[nH]c3c(=O)[nH]c4ccc(O)cc4c3c2c1 [Compound 55, 2-Hydroxy-10-methoxy-5,7-dihydro-6H-indolo[2,3-c]quinolin-6-one]
[1]
  inhibition at 1 µM: 98%
MAPK15 (ERK7)
  inhibition at 1 µM: 58%
MAP2K2 (MEK2)
  inhibition at 1 µM: 94%
[2]
  inhibition at 1 µM: 98%
AMPK (A1/B1/G2)
  inhibition at 1 µM: 81%
EPHA3
  inhibition at 1 µM: 13%
AMPK (A2/B2/G2)
  inhibition at 1 µM: 80%
ULK3
  inhibition at 1 µM: 45%
LIMK1
  inhibition at 1 µM: 23%
CDK8/cyclin C
  inhibition at 1 µM: 40%
TEC
  inhibition at 1 µM: 4%
MAP2K6 (MKK6)
  inhibition at 1 µM: 2%
CLK4
  inhibition at 1 µM: 100%
STK39 (STLK3)
  inhibition at 1 µM: 24%
CDK9/cyclin K
  inhibition at 1 µM: 59%
BMPR2
  inhibition at 1 µM: 116%
MAPK9 (JNK2)
  inhibition at 1 µM: 25%
AMPK (A1/B1/G3)
  inhibition at 1 µM: 82%
STK33
  inhibition at 1 µM: 46%
CAMKK1 (CAMKKA)
  inhibition at 1 µM: 8%
WNK1
  inhibition at 1 µM: 7%
AMPK (A2/B2/G1)
  inhibition at 1 µM: 70%
DAPK2
  inhibition at 1 µM: 90%
KIT V654A
  inhibition at 1 µM: 25%
U-2 OS spheroids
  U-2 OS spheroid cell viability: marked dose-dependent effect
HCT116 spheroids
  HCT116 spheroid cell viability: marked dose-dependent effect
[3]
  Inhibition of intracellular Haspin (H3T3ph signal): could inhibit intracellular Haspin
RnDYRK1A; IC50 DYRK1A/IC50 Haspin
  Selectivity index DYRK/Haspin: 65
RnDYRK1A; dose-response curve, each point in duplicate, read-out: Kinase inhibition (IC50) DYRK1A
  IC50: 130 nM
RnDYRK1A; mean n = 2, % of maximum activity of DMSO control, read-out: % Residual activity at 1 μM DYRK1A
  remaining activity: 2%
